Source: patent US10688119B2, “Inhibitors of PCSK9 for treatment of lipoprotein metabolism disorders” (Aarhus Universitet, priority 2015, dated 2020)
Entries after “also recorded” stand apart in the source; their conditions may differ. Values belong to the molecule of their own block, whether it stands above or below them.

Key:
[1] = in vivo; cited from earlier work
[2] = tested on: LDLR in HepG2 cells; test: LDLR levels in HepG2 cells by Western blot/densitometry (PCSK9 induced LDLR degradation)
Experimental: Purified PCSK9 variants were tested in a cell assay to test their ability to induce degradation of LDLR compared to wild-type PCSK9. Induction of LDLR degradation was analyzed by incubation of HepG2 cells with wild type PCSK9 (WT) or the above PCSK9 mutants and LDLR levels were assessed by Western blotting. HepG2 cells were seeded at a density 250.000 cells per well in 12-well plates. […] Cells were harvested and lysed following 18 hours incubation and LDLR levels were assessed by Western blotting and quantification by densitometry.
The PCSK9 inhibitory effect of overnight incubation with suramin (0-200 μg/ml) was tested in HepG2 cells (FIG. 9 A-B).

[3] = patients with elevated serum cholesterol, oral or subcutaneous Pentosan-polysulfate
Experimental: The patient receives subcutaneous injections of 25-500 mg of the composition at intervals of 1-28 days.
A patient with elevated LDL cholesterol is prescribed a statin treatment. […] The patient is then prescribed a treatment with subcutaneous injections of 25-500 mg of a composition comprising a humanized antibody directed against the HSPG binding site in human PCSK9. The injections take place at intervals of 1-28 days.
A patient with elevated LDL cholesterol levels is prescribed administration of a small molecule compound that is designed to block the HSPG binding site in human PCSK9. The compound is administered orally at a dosis of 0.1-30 mg/kg.
In addition to the statin, the patient is administered a compound inhibiting binding of HSPGs to PCSK9. The administration occurs weekly and with a low dose (25-150 mg) of the compound in combination with statins.
Cholesterol levels are then measured.

[4] = target: PCSK9 (Homo sapiens, UniProt Q8NBP7); test: Microscale Thermophoresis (MST) equilibrium binding to PCSK9; details: 100 nM labelled PCSK9, PBS+0.05% Tween-20; read-out: KD (affinity for PCSK9, MST)
PCSK9, sequence (Q8NBP7 153-692): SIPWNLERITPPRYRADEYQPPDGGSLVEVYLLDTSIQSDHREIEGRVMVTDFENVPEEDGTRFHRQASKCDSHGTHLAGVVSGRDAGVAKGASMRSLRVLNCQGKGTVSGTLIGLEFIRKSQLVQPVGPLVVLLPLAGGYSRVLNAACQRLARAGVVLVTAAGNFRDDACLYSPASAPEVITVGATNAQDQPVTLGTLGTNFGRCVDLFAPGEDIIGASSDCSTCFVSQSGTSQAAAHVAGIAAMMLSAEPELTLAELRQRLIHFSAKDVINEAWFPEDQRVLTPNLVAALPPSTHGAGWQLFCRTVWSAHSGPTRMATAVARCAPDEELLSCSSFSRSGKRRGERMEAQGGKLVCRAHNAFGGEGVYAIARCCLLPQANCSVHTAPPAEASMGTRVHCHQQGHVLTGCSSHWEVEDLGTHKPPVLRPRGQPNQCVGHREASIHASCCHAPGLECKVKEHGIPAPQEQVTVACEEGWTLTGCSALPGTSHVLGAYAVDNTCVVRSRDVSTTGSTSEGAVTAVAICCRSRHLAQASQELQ
Experimental: PCSK9 was labeled using the MO-L003 Monolith Blue-NHS labeling kit (NanoTemper Technologies) and a labeling efficiency of 1:1 molar ratio of protein to dye was achieved. PCSK9 was applied at a final concentration of 100 nM. […] MST measurements were performed in standard-treated capillaries (NanoTemper Technologies) on a Monolith NT.115 instrument (NanoTemper Technologies) using 20% LED and 80% MST power. Laser on and off times were 5 s and 35 s, respectively. Negative controls were performed using 100 nM of labelled PCSK9 in MST buffer in all 16 capillaries under the same conditions as mentioned above. […] For each binding partner, the sigmoidal dose-response curves were fitted with GraphPad Prism 6 to yield an average KD value.

[5] = tested on: R93R96R97R104R105H139 PCSK9 mutant and variants; test: immunoprecipitation of 35S-mutant PCSK9 and PCSK9 variants; assay type: binding, human; details: WT, R96R97, R104R105, R93R96R97H139, R93R96R97R104R105H139
Experimental: (§1) Western blot of GAPDH is shown as loading control. (B) Western Blot showing LDLR levels in liver of mice 1 hour afterintravenous administration of 10 μg PCSK9 alone or in combination with 50 U Heparin. 50 μg membrane preparations were loaded. As control is shown Western Blot for sortilin, a PCSK9 receptor previously shown not to be target of PCSK9 induced degradation. (C) Quantification of B) Bands were quantified by densitometry and dot plot show the individual level of each sample in percent of vehicle (0.9% NaCl) injected controls with mean values and SEM. […] (D) Autoradiography (16 h exposure) showing immunoprecipitation of native human ^35S labeled PCSK9 by serum (1 μl) from three rats immunized with DNA encoding rat PCSK9 with human HSPG binding domain. As negative controls were used preimmune serum from the animals. (E) Western Blot showing LDLR in HepG2 cells after overnight incubation with preimmune or immune IgG (1 μg/ml). […] (F) Autoradiography (16 h exposure) showing immunoprecipitation of human ^35S-PCSK9 by 24 individual mAbs (500 μl conditioned hybridoma media) selected in ELISA screening performed by Aldevron. […] (G) Bar graphs showing LDLR levels (average of 2-4 experiments with SEM) in HepG2 cells incubated with mAbs (1:10 dilution of conditioned hybridoma media) as analysed by Western Blot. Twelve individual mAb clones give an approximately two-fold increase LDLR. (H) Autoradiography (16 h exposure) showing immunoprecipitation of human ^35S-mutant PCSK9 (with R93R96R97R104R105H139 mutated to alanine residues) by 12 individual mAbs (500 μl conditioned hybridoma media) all showing PCSK9 inhibitory effect. As control was used a polyclonal antibody (pAb, AF3888 from R&D systems). […] As control was used R&D Systems AF3888 (pAb).
(§2) These 12 clones were tested to see whether they can bind an R93R96R97R104R105H139 PCSK9 mutant (FIG. 8H).

[6] = target: T1, R93R96R97R104R105H139 PCSK9 mutant and variants (Homo sapiens, UniProt Q8NBP7, H139A/R104A/R105A/R93A/R96A/R97A); test: as above; assay type: binding; details: 500 μl conditioned hybridoma media
T1 construct: expressed in transfected cells
Experimental: as §1, §2

Molecule: pentosan [pentosan sulfate]
- median time of absorption from the digestive tract after an oral dose [1]: 2 h
- plateau of cellular LDLR compared to vehicle control ([2]; dose-dependent, HepG2 cells): around 400%
- serum cholesterol levels [3]: decreased serum cholesterol levels
- Kd [4]: 381 µM

- binding of R93R96R97R104R105H139 PCSK9 mutant (immunoprecipitation) [6]: not able to bind this mutant
B1: mAb 5E11: rat monoclonal antibody against the HSPG binding domain; VH SEQ ID NO: 7, VK SEQ ID NO: 5 (antibody, V domains shown)
VH: EVQLQESGPGLVKPSQSLSLTCSVTGYTITSGYDWSWIRRFPGNTMEWMGDISYSGSTNYNPSLKSRVSITRDTSKNQFFLQLNSVTTGDTATYYCAKLPGWGQGTLVTVSS
VL: DVVLTQTPVFLSVTLGDQTSISCRSSQSLEYSDGYTYLEWYLQKPGQSPQLLIYEVSNRFSGVPDRFIGSGSGTDFTLKISRVEPEDLGVYYCFQGTHDPLTFGSGTKLEIK
- increase of cellular LDLR ([2]; mAbs, 1:10 dilution of conditioned hybridoma media): approximately two fold
- immunoprecipitation of 35S-PCSK9 WT and variants (epitope) [5]: recognize only WT PCSK9; also recorded: recognize epitopes within the HSPG binding domain
